This test concerns the target ClpP1P2 (Mycobacterium tuberculosis (strain ATCC 25618 / H37Rv), UniProt P9WPC3+P9WPC5). Put plainly: in vitro assay to detect presence of AMC directly proportional to the activity of ClpP1P2. GHDDI collaboration. Type of test: functional.

Each structure is given as a SMILES string.

Chain of ClpP1P2 (P9WPC5 whole entry): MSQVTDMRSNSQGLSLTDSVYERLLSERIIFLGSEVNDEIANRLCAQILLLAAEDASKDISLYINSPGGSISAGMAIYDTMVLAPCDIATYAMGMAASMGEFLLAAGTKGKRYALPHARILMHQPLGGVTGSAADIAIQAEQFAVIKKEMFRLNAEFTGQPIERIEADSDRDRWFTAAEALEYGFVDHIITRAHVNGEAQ
Chain of ClpP1P2 (P9WPC3 whole entry): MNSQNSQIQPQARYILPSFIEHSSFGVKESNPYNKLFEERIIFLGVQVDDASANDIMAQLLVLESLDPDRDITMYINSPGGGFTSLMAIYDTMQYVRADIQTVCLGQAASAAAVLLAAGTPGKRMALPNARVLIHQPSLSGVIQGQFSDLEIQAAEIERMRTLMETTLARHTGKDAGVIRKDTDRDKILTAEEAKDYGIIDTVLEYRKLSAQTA

The IC50 is the concentration that gives 50% inhibition. With `CCCOc1ccc(CNc2cncc(-n3cccn3)n2)cc1`, the IC50 was > 100 µM. Consider `CCOCc1ccc(CNc2cncc(-n3cccn3)n2)cc1`, for which the 50% inhibitory concentration (IC50) was > 100 µM. Consider `CCN(CC)C(=O)c1ccc(CNc2cncc(-n3cccn3)n2)cc1`, for which the IC50 was > 100 µM. On to `CSc1nccn1-c1ccc(C(=O)NCC2CC2)cc1`, for which the IC50 is > 100 µM. On to `Cc1cnn(CC2CN(Cc3csc(C4CCCC4)n3)CCO2)c1` (stereo not drawn), for which the IC50 was > 100 µM. Consider `CN(CC(=O)N1CCC(COc2ccccc2)CC1)c1cnccn1`, for which the IC50 was > 100 µM. Regarding `CCOC1CCN(C(=O)CN(C)c2cnccn2)CC1`, the 50% inhibitory concentration (IC50) was > 100 µM.

Turning to `CS(=O)(=O)NC1CCN(C(=O)NCc2ccccn2)CC1`, the IC50 is > 100 µM.

`Cn1c(CN2CCCC(Cn3cncn3)C2)nc2ccccc21` (stereo not drawn): the IC50 was > 100 µM. For the molecule `CC1CN(CC(=O)NCc2ccccn2)CCN1Cc1nccn1C` (stereo not drawn), the half-inhibitory concentration (IC50) is > 100 µM. As for `c1ccc(Cc2nnc(CN3CCc4cncnc4C3)o2)cc1`, the IC50 is > 100 µM. With `Cc1ncc2c(n1)CN(Cc1nc(Cc3ccccc3)no1)CC2`, the concentration for half-maximal inhibition (IC50) is > 100 µM. On to `CC(C)c1ncc2c(n1)CN(Cc1nnc(Cc3ccccc3)o1)CC2`, for which the concentration for half-maximal inhibition (IC50) was > 100 µM. In the case of `CCc1ncc2c(n1)CN(Cc1nnc(Cc3ccccc3)o1)CC2`, the IC50 was > 100 µM.

For `CN(C)c1cc(CNC(=O)Nc2ccc(N3CCCC3)nc2)ccn1`, the IC50 was > 100 µM. For `c1cc(-c2nc(CN3CCc4c(ncn4C4CC4)C3)cs2)cs1`, the IC50 is > 100 µM. Turning to `O=C1CCc2cc(NC(=O)C3CCCN3c3nccs3)ccc2N1` (stereo not drawn), the half-maximal inhibitory concentration (IC50) was > 100 µM.

As for `CN(C)c1cc(C(=O)N2CCN(c3cc(C#N)ccn3)CC2)ccn1`, the 50% inhibitory concentration (IC50) was > 100 µM. Turning to `CN(Cc1noc(C2CC2)n1)C1CCN(Cc2ccccc2C#N)C1` (stereo not drawn), the IC50 is > 100 µM. With `O=C(NCc1nn(-c2ccccc2)c2c1CCC2)NCC1COCCO1` (stereo not drawn), the IC50 was > 100 µM.

Take `CC(Cc1ccco1)NC(=O)Nc1ccc(N(C)C)nc1` (stereo not drawn): the IC50 is > 100 µM.

On to `Cc1cnn(CCNCc2csc(-c3ccsc3)n2)c1`, for which the half-inhibitory concentration (IC50) is > 100 µM. As to `Cc1nc(-c2ccsc2)ccc1C(=O)NCC(C)N1CCOCC1` (stereo not drawn), the concentration for half-maximal inhibition (IC50) was > 100 µM.

Turning to `Cc1nc(-c2ccsc2)ccc1C(=O)NCCCN1CCOCC1`, the concentration for half-maximal inhibition (IC50) is > 100 µM.

In the case of `CCNc1cc2c(nn1)CCN(C(=O)c1nccnc1N)C2`, the half-maximal inhibitory concentration (IC50) was > 100 µM. As for `Cc1cccc(CN(C(=O)NCc2ccccn2)C2CC2)c1`, the IC50 was > 100 µM.

In the case of `CCc1nnc2n1CCN(C(=O)c1ccc(-c3ccco3)[nH]c1=O)C2`, the concentration for half-maximal inhibition (IC50) is > 100 µM. Take `Cc1ncc2c(n1)CN(CC(=O)Nc1ccc(Cl)cn1)CC2`: the IC50 was > 100 µM. `Cc1cccc2nc(CN3CCCC3Cn3cccn3)cn12` (stereo not drawn): the IC50 was > 100 µM.

Turning to `CCc1ncc2c(n1)CN(CC(=O)Nc1cccnc1)CC2`, the IC50 is > 100 µM.

As for `CCc1ncc2c(n1)CN(CC(=O)Nc1nncs1)CC2`, the IC50 was > 100 µM.

Consider `CCc1ncc2c(n1)CN(C(C)C(=O)Nc1ccc(Cl)cn1)CC2` (stereo not drawn), for which the IC50 was > 100 µM. With `CC(C)c1ncc2c(n1)CN(CC(=O)Nc1ccc(Cl)cn1)CC2`, the IC50 was > 100 µM.

`Cn1cc(CCC(=O)N2CCCN(c3ncccc3C#N)CC2)cn1`: the concentration for half-maximal inhibition (IC50) was > 100 µM. As for `N#Cc1cccnc1N1CCCN(C(=O)CCn2cccn2)CC1`, the figure is > 100 µM; as for `N#Cc1cccnc1N1CCCN(C(=O)CCn2cncn2)CC1`, > 100 µM. The figure for `Cc1nn(C)c(C)c1C1CCCN1C(=O)c1nccnc1N` (stereo not drawn) is > 100 µM.

For the molecule `CS(=O)(=O)CCNC(=O)c1ccc(-c2ccco2)[nH]c1=O`, the IC50 was > 100 µM.

For `O=C(NCCOC1CCCC1)c1ccc(-c2ccco2)[nH]c1=O`, the half-maximal inhibitory concentration (IC50) is > 100 µM. Consider `O=C(NCCOC1CCCCC1)c1ccc(-c2ccco2)[nH]c1=O`, for which the IC50 is > 100 µM. In the case of `CC(C)(C)OC(=O)NCCNC(=O)c1ccc(-c2ccco2)[nH]c1=O`, the concentration for half-maximal inhibition (IC50) was > 100 µM. As to `O=C(NCC(F)(F)F)c1ccc(-c2ccco2)[nH]c1=O`, the IC50 was > 100 µM. On to `Cc1nc(CN2CCCN(C(=O)c3sccc3C#N)CC2)cs1`, for which the half-maximal inhibitory concentration (IC50) is > 100 µM. Regarding `CCCn1[nH]cc/c1=N\C(=O)CN1CCc2c(nc(C3CC3)n2C)C1`, the IC50 was > 100 µM. As for `Cc1nc(CN2CCN(C(=O)c3sccc3C)CC2)cs1`, the figure is > 100 µM.

Regarding `CN(Cc1cccc(C(N)=O)c1)CC1CCCN1c1cccnn1` (stereo not drawn), the 50% inhibitory concentration (IC50) is > 100 µM.

For `CCCn1[nH]cc/c1=N\C(=O)CN1CCc2cnc(C(C)C)nc2C1`, the IC50 was > 100 µM. For `CC(Cn1cccn1)NC(=O)NCc1ccoc1` (stereo not drawn), the concentration for half-maximal inhibition (IC50) is > 100 µM. In the case of `Cc1cc(CN2CCN(C(=O)c3sccc3C3CC3)CC2)no1`, the half-maximal inhibitory concentration (IC50) is > 100 µM. For `COc1ccc(C(=O)N(C)Cc2nnc3ccccn23)c(OC)c1OC`, the half-maximal inhibitory concentration (IC50) is > 100 µM. Turning to `Cc1ccc(CNC(=O)NC(C)Cn2cccn2)cn1` (stereo not drawn), the IC50 is > 100 µM. Regarding `Cc1ccoc1C(=O)NC1CCN(C(=O)Nc2ccccn2)CC1`, the IC50 is > 100 µM.

Consider `Cc1nc(CN2CCOC(Cn3cccn3)C2)nc2ccccc12` (stereo not drawn), for which the half-inhibitory concentration (IC50) was > 100 µM. With `Nc1nc(CN2CCOC(Cn3cccn3)C2)nc2ccccc12` (stereo not drawn), the IC50 is > 100 µM.

For the molecule `CCn1ccnc1CN1CCN(CC(O)c2cccc(F)c2)CC1` (stereo not drawn), the concentration for half-maximal inhibition (IC50) was > 100 µM. Turning to `Cc1cnn(CC2CN(Cc3nc4ccccc4o3)CCO2)c1` (stereo not drawn), the IC50 is > 100 µM.

Take `Cc1cnn(CC2CN(Cc3nc(C)c4ccccc4n3)CCO2)c1` (stereo not drawn): the IC50 is > 100 µM. `Cc1ccc(C(=O)NC2CCN(C(=O)NCc3ccccn3)CC2)o1`: the half-inhibitory concentration (IC50) is > 100 µM. In the case of `Cn1ccnc1CN1CCN(CC(O)c2cc(F)ccc2F)CC1` (stereo not drawn), the IC50 was > 100 µM. As for `CC(C)c1nc2c(n1C)CCN(CC(=O)Nc1cccnc1)C2`, the figure is > 100 µM; as for `CC(C)Oc1ccc(C(=O)N2CCC(Nc3cccnn3)CC2)cn1`, > 100 µM. With `Cc1cnn(CC2CCCCN2C(=O)c2nccnc2N)c1` (stereo not drawn), the IC50 was > 100 µM.

For `Cc1cnn(CC2CCCN2C(=O)c2nccnc2N)c1` (stereo not drawn), the 50% inhibitory concentration (IC50) is > 100 µM. For `Cc1cnn(CC2CN(Cc3nc4cccnc4[nH]3)CCO2)c1` (stereo not drawn), the half-inhibitory concentration (IC50) was > 100 µM. In the case of `Cc1cnn(CC2CN(Cc3nc4ccccc4c(=O)[nH]3)CCO2)c1` (stereo not drawn), the IC50 is > 100 µM.

Regarding `Cc1cc(C)n(CC2CCCN2C(=O)c2ccnc(N(C)C)c2)n1` (stereo not drawn), the IC50 is > 100 µM. Regarding `c1ccc(CCCN2CCOC(Cn3cccn3)C2)cc1` (stereo not drawn), the 50% inhibitory concentration (IC50) was > 100 µM.

With `COCCN1CC(C(=O)NCc2cccnc2-n2cccn2)CC1=O` (stereo not drawn), the 50% inhibitory concentration (IC50) is > 100 µM.

For `O=C(NCCCn1cccn1)NCC(c1ccco1)N1CCCC1` (stereo not drawn), the IC50 is > 100 µM. The figure for `CCC(CNC(=O)Nc1cnn(CC)c1)N1CCc2ccccc2C1` (stereo not drawn) is > 100 µM; for `O=C(c1cc(F)ccc1F)C1CCN(C(=O)c2cnccn2)CC1` it is > 100 µM. For the molecule `CCOC1CCN(C(=O)NCCc2ccn(-c3ccccc3)n2)CC1`, the IC50 was > 100 µM. For `CC(=O)N(Cc1ncc(C)o1)C1CCN(Cc2cc(C)on2)C1` (stereo not drawn), the half-inhibitory concentration (IC50) was > 100 µM. Regarding `Cc1ccc(CN(CC(=O)N2CCOC(C)C2)C2CC2)cc1` (stereo not drawn), the IC50 is > 100 µM. For the molecule `Cc1cnn(CC2CCCN2C(=O)CCc2ccncc2)c1` (stereo not drawn), the IC50 was > 100 µM.

In the case of `CCCc1nc(CNCC2CCCN2c2cccnn2)no1` (stereo not drawn), the IC50 was > 100 µM. Turning to `CCn1c(C)nnc1CN(C)C1CCN(CCS(=O)(=O)CC)C1` (stereo not drawn), the IC50 was > 100 µM. The figure for `CC1CN(C(=O)CN(Cc2ccco2)Cc2cccs2)CCO1` (stereo not drawn) is > 100 µM; for `CC1CN(C(=O)CN(Cc2ccccc2)C2CC2)CCO1` (stereo not drawn) it is > 100 µM. The figure for `CCc1nc(C2CCCN(C(=O)CC3CCOCC3)C2)no1` (stereo not drawn) is > 100 µM. As for `Cc1nc(C)n(CC2CCCN2CCC(=O)N2CCCCC2)n1` (stereo not drawn), the figure is > 100 µM. In the case of `Cc1nc(C)n(CC2CCCN(CC(=O)N3CCCC3)C2)n1` (stereo not drawn), the IC50 was > 100 µM.

Regarding `CS(=O)(=O)NC1CCCN(C(=O)c2cccnc2)C1` (stereo not drawn), the IC50 is > 100 µM. Take `COc1ccnc(N2CCN(C(=O)Cc3ccsc3)CC2)n1`: the 50% inhibitory concentration (IC50) is > 100 µM. `Cc1nnc(C2Cc3ccccc3CN2Cc2c(C)noc2C)o1` (stereo not drawn): the half-inhibitory concentration (IC50) is > 100 µM. As for `CCn1cnnc1CNC(=O)N1CCN(Cc2ccco2)CC1`, the figure is > 100 µM; as for `Cc1nc(C)n(CC2CCCN(CCC(=O)NC3CCCCC3)C2)n1` (stereo not drawn), > 100 µM.

On to `CC(C)c1nn(C)c(N(C)C)c1CNCC(O)c1cccc(F)c1` (stereo not drawn), for which the half-maximal inhibitory concentration (IC50) is > 100 µM. On to `COCc1cccc(CNCc2c(C)nn(C)c2N2CCOCC2)c1`, for which the half-maximal inhibitory concentration (IC50) was > 100 µM.

Consider `CC(C)c1nnc(CNC2CCCN(Cc3noc(C4CC4)n3)C2)o1` (stereo not drawn), for which the IC50 is > 100 µM. The figure for `O=C(NCCC(=O)N1CCCc2ccccc21)c1ccc(F)cc1F` is > 100 µM. In the case of `O=C(NCCC(=O)N1CCCc2ccccc21)c1c(F)cccc1F`, the 50% inhibitory concentration (IC50) is > 100 µM. Consider `Cc1nc(CN(C)C2CCN(Cc3cccc4c3OCCO4)C2)no1` (stereo not drawn), for which the IC50 is > 100 µM. For the molecule `COc1cc2ccccc2cc1C(=O)N1CCCC(c2nncn2C)C1` (stereo not drawn), the IC50 was > 100 µM. On to `CCc1nc(CN2CCCC(NCc3nc(C)c(C)o3)C2)no1` (stereo not drawn), for which the half-inhibitory concentration (IC50) is > 100 µM. In the case of `Cc1oc(C)c(C(=O)N2CCN(Cc3cscn3)CC2)c1C`, the IC50 was > 100 µM.

For the molecule `Cc1nn(C)c(C)c1C1CCCN1C(=O)c1ccnc(N(C)C)c1` (stereo not drawn), the concentration for half-maximal inhibition (IC50) was > 100 µM. Take `CCc1nnc(CNC2CCCN(Cc3noc(C4CC4)n3)C2)o1` (stereo not drawn): the concentration for half-maximal inhibition (IC50) was > 100 µM. `Cc1nc(CN(C)C2CCN(Cc3ccc4c(c3)CCC4)C2)no1` (stereo not drawn): the IC50 was > 100 µM. Regarding `CCNc1cc2c(nn1)CCN(C(=O)c1ccoc1)C2`, the IC50 is > 100 µM. The figure for `Cc1cc(C)n(CC2CCCN2CCCS(N)(=O)=O)n1` (stereo not drawn) is > 100 µM. For the molecule `Cn1cc(CN2CCCN(C(=O)c3cn4ccccc4n3)CC2)cn1`, the IC50 is > 100 µM. With `CC(C)c1nnc2n1CCN(Cc1csc(CC(=O)N(C)C)n1)C2`, the IC50 was > 100 µM.

With `Cc1cccc2c1OCCC2NCc1c(C)nn(C)c1N(C)C` (stereo not drawn), the half-inhibitory concentration (IC50) was > 100 µM. For the molecule `CCCn1[nH]cc/c1=N\C(=O)CN1CCn2c(nnc2C2CC2)C1`, the half-maximal inhibitory concentration (IC50) was > 100 µM. On to `CS(=O)(=O)N1CCCCCC1C1CCN(c2ncccc2C#N)CC1` (stereo not drawn), for which the concentration for half-maximal inhibition (IC50) is > 100 µM. Consider `CCN(Cc1nc2c(cnn2C)c(=O)[nH]1)Cc1cccs1`, for which the IC50 was > 100 µM. Take `Cc1cc(NC(=O)CN2CCn3c(nnc3C(C)C)C2)no1`: the half-maximal inhibitory concentration (IC50) is > 100 µM.

The values above are taken from ChEMBL document CHEMBL3988442, “University of Dundee, Small-Polar-MMV Screening Library” (2021).
